This is an account of results in the NIST ThermoML archive (doi:10.1021/acs.jced.7b00584).

For series [1] the following is noted: Liquid, Ebulliometric method (Recirculating still).
Series [2] in a line: Boiling temperature at pressure P. The following applies: 101.3 kPa; Liquid; Ebulliometric method (Recirculating still).

± gives the expanded uncertainty stated by the source.

The term vapor or sublimation pressure denotes the equilibrium pressure above the liquid or solid. As for `O=C1CCCO1` [γ-butyrolactone], the entries for the “vapor or sublimation pressure” value in series [1] (450.25 K) and in series [1] (462.65 K) were 50 ± 1 kPa and 70 ± 1 kPa, respectively. Also, the “Boiling temperature at pressure P” value in series [2] was 204.00 ± 0.11 °C.

For the compound `C1CCOC1` [tetrahydrofuran], the “vapor or sublimation pressure” value is on record as 50 ± 1 kPa in series [1] (318.85 K) and 70 ± 1 kPa in series [1] (328.15 K). For the same compound, the “Boiling temperature at pressure P” value in series [2] was found to be 65.97 ± 0.11 °C.

For the compound `OCCCCO` [1,4-butanediol], the “vapor or sublimation pressure” value worked out at 50 ± 1 kPa in series [1] (479.1 K) and 70 ± 1 kPa in series [1] (489.25 K). Besides, the “Boiling temperature at pressure P” value in series [2] was 228.00 ± 0.11 °C.
